Common to all, as to type: biochemical
Assay [1] deals with T1, ENPP1 (Homo sapiens, UniProt P22413).
T1 sequence (P22413 1-925): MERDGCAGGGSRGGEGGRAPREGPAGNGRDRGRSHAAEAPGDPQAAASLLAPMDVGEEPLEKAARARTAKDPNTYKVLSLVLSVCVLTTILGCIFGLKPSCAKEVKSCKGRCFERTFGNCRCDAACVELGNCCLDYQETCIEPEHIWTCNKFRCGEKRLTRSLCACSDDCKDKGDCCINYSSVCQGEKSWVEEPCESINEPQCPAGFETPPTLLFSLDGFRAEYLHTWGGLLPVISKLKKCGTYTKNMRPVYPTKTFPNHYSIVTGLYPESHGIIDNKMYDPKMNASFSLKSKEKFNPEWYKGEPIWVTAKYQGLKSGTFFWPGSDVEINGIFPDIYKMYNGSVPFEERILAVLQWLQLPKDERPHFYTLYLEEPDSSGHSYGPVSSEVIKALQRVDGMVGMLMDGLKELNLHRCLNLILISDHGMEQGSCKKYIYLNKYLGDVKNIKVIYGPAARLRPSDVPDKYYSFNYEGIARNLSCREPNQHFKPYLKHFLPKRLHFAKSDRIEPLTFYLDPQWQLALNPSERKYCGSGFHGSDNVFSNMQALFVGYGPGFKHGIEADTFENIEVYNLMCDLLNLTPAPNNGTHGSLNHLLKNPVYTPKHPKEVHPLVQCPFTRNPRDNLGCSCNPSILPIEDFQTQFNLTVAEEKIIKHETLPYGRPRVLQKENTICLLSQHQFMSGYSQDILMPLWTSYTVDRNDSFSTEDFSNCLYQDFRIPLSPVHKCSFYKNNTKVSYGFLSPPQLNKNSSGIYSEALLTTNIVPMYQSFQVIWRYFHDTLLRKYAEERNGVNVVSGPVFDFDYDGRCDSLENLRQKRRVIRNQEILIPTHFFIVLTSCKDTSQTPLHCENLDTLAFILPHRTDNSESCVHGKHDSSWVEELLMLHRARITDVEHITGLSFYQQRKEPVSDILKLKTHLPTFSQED
As to the kind of experiment: Indirect quantitation of 2',3'-cGAMP hydrolysis (AMP-Glo Assay kit). As to conditions: cGAMP substrate; Ki from IC50 by Cheng-Prusoff; read-out: ENPP1 Inhibition -cGAMP: Ki.

For assay [2], the target named is T1, ENPP1. The experiment in a line: Substrate selectivity ratio, inhibition of cGAMP hydrolysis versus ATP hydrolysis. As to conditions: ratio Ki AMP-pNP / Ki cGAMP. The protocol: The selectivity ratios for inhibition of cGAMP hydrolysis versus ATP hydrolysis were then calculated as follows: […]
The target of assay [3] is T1, ENPP1. As to the kind of experiment: ENPP1 enzyme assay with AMP-pNP substrate (hydrolysis of ATP analog). As to conditions: AMP-pNP substrate (ATP analog); Ki from IC50 by Cheng-Prusoff; read-out: ENPP1 Inhibition _AMP-pNP: Ki. An outline of the steps: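 Reactions ran 20 min at 37 °C, pH 8.5 Tris buffer with NaCl, CaCl2, ZnCl2, using 300 µM AMP-pNP and 60 ng/well recombinant human ENPP1; inhibitor range 10 µM–30 pM, duplicates.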

pKi: −log10 of the molar value. Where only a bound is given, the exact number is not on record here.

For the compound `COc1cc2ncc(C#N)c(-c3ccc(S(N)(=O)=O)cc3)c2cc1OC` [Example 136, 4-(3-cyano-6,7-dimethoxyquinolin-4-yl)benzenesulfonamide], the results for the pKi in assay [1] and in assay [3] were above 7.00 and below 6.00, respectively. In assay [2], the “Substrate Selectivity: Ki_AMP-pNP/Ki_cGAMP” value (“Substrate Selectivity” below) was above 461.
For `COc1cc2nccc(OC3CCC(NS(N)(=O)=O)C3)c2cc1OC` (stereo not drawn) [Example 213, N-(3-((6,7-dimethoxyquinolin-4-yl)oxy)cyclopentyl)sulfamide], in that order: above 7.00, below 6.00 and 33.0.
For `COc1cc2ncc(C#N)c(N3CCC(CCNS(N)(=O)=O)CC3)c2cn1` [Example 245, N-(2-(1-(3-cyano-7-methoxy-1,6-naphthyridin-4-yl)piperidin-4-yl)ethyl)sulfamide], in that order: 6.00 to 7.00, below 6.00 and above 92.6.
On to `COc1cc2nccc(N3CCc4cc(NS(N)(=O)=O)ccc43)c2cc1OC` [Example 281, N-(1-(6,7-dimethoxyquinolin-4-yl)indolin-5-yl)sulfamide], for which the values for the pKi in assay [1] and in assay [3] were above 7.00 and 6.00 to 7.00, respectively. Also, the “Substrate Selectivity” value in assay [2] came out at 30.7.
For `COc1ccc2c(Nc3ccc(NS(N)(=O)=O)cc3)ccnc2c1F` [Example 269, N-(4-((8-fluoro-7-methoxyquinolin-4-yl)amino)phenyl)sulfamide], in that order: above 7.00, 6.00 to 7.00 and above 7.1.
As for `COc1ccc2c(-c3ccc(CNS(N)(=O)=O)cc3)ccnc2n1` [Example 63, N-(4-(7-methoxy-1,8-naphthyridin-4-yl)benzyl)sulfamide], the pKi in assay [1] and in assay [3] was above 7.00 each time. Further, the “Substrate Selectivity” value in assay [2] stood at 28.0.
Take `NS(=O)(=O)Nc1ccc(Nc2ncnc3ncccc23)cc1` [Example 242, N-(4-(pyrido[2,3-d]pyrimidin-4-ylamino)phenyl)sulfamide]: the figures for the pKi in assay [1] and in assay [3] were 6.00 to 7.00 and below 6.00, respectively. Besides, the “Substrate Selectivity” value in assay [2] was above 82.4.
For `COc1ccc2ncnc(NCc3ccc(S(N)(=O)=O)cc3)c2c1` [Example 306, 4-(((6-methoxyquinazolin-4-yl)amino)methyl)benzenesulfonamide], in that order: above 7.00, 6.00 to 7.00 and 22.4.
For `COc1ccc2c(-c3ccc(CNS(N)(=O)=O)cc3)ncnc2c1` [Example 226, N-(4-(7-methoxyquinazolin-4-yl)benzyl)sulfamide], in that order: above 7.00, 6.00 to 7.00 and 29.5.
In the case of `NS(=O)(=O)N1CCC2(CCN(c3ncnc4ccc(F)cc34)CC2)C1` [Example 288, 8-(6-fluoroquinazolin-4-yl)-2,8-diazaspiro[4.5]decane-2-sulfonamide], the pKi in assay [1] is above 7.00; in assay [3], 6.00 to 7.00. Besides, the “Substrate Selectivity” value in assay [2] amounted to 27.9.
For `COc1cc2ncnc(N3CCC(CCC(=O)O)CC3)c2cc1OC` [Example 171, 3-(1-(6,7-dimethoxyquinazolin-4-yl)piperidin-4-yl)propanoic acid], in that order: 6.00 to 7.00, below 6.00 and above 50.7.
For `COc1cc2ncnc(NC(C)c3ccc(NS(N)(=O)=O)cc3)c2cc1OC` (stereo in doubt) [Example 254, (S)-N-(4-(1-((6,7-dimethoxyquinazolin-4-yl)amino)ethyl)phenyl)sulfamide], in that order: above 7.00, below 6.00 and above 31.4.
For the compound `COc1ccc2ncc(C#N)c(N3CCC4(CC3)CCN(S(N)(=O)=O)C4)c2c1` [Example 238, 8-(3-cyano-6-methoxyquinolin-4-yl)-2,8-diazaspiro[4.5]decane-2-sulfonamide], the pKi is above 7.00 in assay [1] and 6.00 to 7.00 in assay [3]. For the same compound, the “Substrate Selectivity” value in assay [2] is on record as above 99.7.

As usually defined, the pKi is the Ki on a negative log10 scale, so that one unit is a factor of ten.

For the origin of these results see patent US20230183239A1, “ECTONUCLEOTIDE PYROPHOSPHATASE-PHOSPHODIESTERASE 1 (ENPP-1) INHIBITORS AND USES THEREOF” (AbbVie Inc., priority 2017, published 2023).
